{"source": "patent US20230272062A1", "about": "“Treatment Of Lung Disease Based Upon Stratification Of Polygenic Score Relating To Response To A Therapeutic Agent” (Regeneron Pharmaceuticals, Inc., priority 2021, published 2023)", "key": {"[1]": {"test": "Change of FEV1 in dupilumab-treated subjects stratified by FEV1-PS", "format": "in vivo, human", "details": "European subjects", "source_text": "The covariates were AGE, SEX, STUDYID (study identifier), ICS_FL (taking inhaled corticosteroids at baseline; yes/no), EOSBL_300 FL (eosinophils >300 at baseline), ASMANUM_LOG (exacerbation history for the previous year), HGTBL (height baseline), FEV1BL, and PC1-4 (principal components 1-4). The FEV1-PS was divided into quartiles and ranked from lowest to highest, the number at the bottom of each bar is the number of subjects in each group, and the number inside each bar is the change in FEV1 values at week 12.\nThe covariates were AGE, SEX, STUDYID, ICS_FL, EOSBL_300 FL, ASMANUM_LOG, HGTBL, FEV1BL, and PC1-4."}, "[2]": {"test": "Annualized exacerbation rate in dupilumab-treated subjects stratified by FEV1-PS", "format": "in vivo, human", "details": "European subjects, by FEV1-PS quartile (FIG. 3)", "source_text": "The covariates were AGE, SEX, STUDYID, ICS_FL, EOSBL_300 FL, ASMANUM_LOG, HGTBL, FEV1BL, and PC1-4. The FEV1-PS was divided into quartiles and ranked from lowest to highest, the number at the bottom of each bar is the number of subjects in each group, and the number inside each bar is the change in annualized exacerbation rate."}}, "note": "“Also recorded” adds a separate entry of the source."}
{"substance": "dupilumab", "values": [{"measurement": "longitudinal increase of change of FEV1", "setting": "[1]; by FEV1-PS (FIG. 2)", "result": "significantly associated with better FEV1 improvement; also recorded: greatest FEV1 improvement"}, {"measurement": "change of FEV1 at week 12", "setting": "[1]; by FEV1-PS quartile, compared to placebo-treated patients (FIG. 1)", "result": "significantly associated with better FEV1 improvement; also recorded: greatest improvement in FEV1"}, {"measurement": "annualized exacerbation rates", "setting": "[2]", "result": "not associated with differences in annualized exacerbation rates"}]}
